Experimental data as given in PubChem BioAssay AID2060905 (Molecular Pharmacology Branch, DTP, NCI, 2025).

Test system: 282377-053-R-J1-PDC complex spheroid viability
Assay: Anticancer human tumor 282377-053-R-J1-PDC patient-derived colon adenocarcinoma cell line growth inhibition [RAS]
Conditions: for IC50: curve of first compound; for viability, T/C: stronger effect = lower value
Description: RAS pathway inhibitors in Combinations in Complex Spheroids
A high-throughput screen of multi-cell type tumor spheroids was designed to identify active combinations of RAS pathway inhibitors and targeted small molecules. Complex spheroids include a stromal component modeled by human endothelial cells (HUVEC) and fibroblasts modeled by human mesenchymal stem cells (MSCs). The concentration ranges selected for each drug and investigational agent were based upon clinically achievable concentrations if the clinical Cmax of the agent was known.
Compounds. The drugs and investigational agents: abemaciclib (NSC768073), cobimetinib (NSC768068), divarasib (GDC6063, NSC841802), docetaxel (NSC628503), GDC-1971 (RLY-1971, NSC841576), gemcitabine (NSC613327), inavolisib (NSC800729), ipatasertib (NSC767898), KB-0742 (NSC834161), MRTX-1133 (NSC836407), osimertinib (NSC779217), RMC-4630 (NSC839698), RMC-6236 (NSC851965), RMC-6291 (NSC852671), Ro-3306 (NSC812927), sapanisertib (NSC764658), SN-38 (NSC673596), staurosporine (NSC755774), SY5609 (NSC837396), and tovorafenib (DAY101, NSC766906), were obtained from the National Cancer Institute (NCI) Developmental Therapeutics Program Chemical Repository. The FDA-approved anticancer drug set is available from the NCI Developmental Therapeutics Program. […] The stock solutions were prepared in dimethyl sulfoxide (DMSO, Sigma-Aldrich, St. Louis, MO, cat. D2650) at 800-fold the tested concentration and stored at -70 degrees C prior to their use. All drugs and investigational agents were tested over a range starting from a high concentration at or near the clinical Cmax and decreasing in half-log increments. If the clinical Cmax for an agent had not been determined, the highest concentration tested was 10 microM.
Cell Culture. All cells were maintained in an incubator at 37 degrees C and 5% CO2 with 95% humidity. The PDC lines were cultured according to standard operating procedures established by the NCI PDMR. All PDCs were thawed and cultured in Matrigel-coated flasks prepared with a working solution of 1X Ham's F-12 nutrient mix, without supplementation (Invitrogen, Waltham, MA, cat. 11765054), 100 U/mL penicillin-streptomycin (Invitrogen, cat. 15140122), and 2.5% Matrigel (Corning Inc., Corning, NY, cat. 354248) for the first three passages. The 362531-283-R-J2-PDC and 782815-120-R-J1-PDC lines were cultured in 6C/Colon 1B media, which includes advanced DMEM/F-12 (Thermo Fisher Scientific, cat. 12634028), 10 mM HEPES (Thermo Fisher Scientific, cat. 15630080), 1X GlutaMAX supplement (Thermo Fisher Scientific, cat. 35050061), 0.1 mg/mL primocin (InvivoGen, San Diego, CA, cat. ant-pm-2), 10% defined fetal bovine serum, heat inactivated (HyClone Laboratories Inc., Logan, UT, cat. SH30070.03HI), 50% L-WRN conditioned media (ATCC, cat. CRL-3276), 1.25 mM N-Acetyl-L-cysteine (Sigma-Aldrich, cat. A9165), 10 mM nicotinamide (Sigma-Aldrich, cat. N0636), 1X B-27 supplement (Thermo Fisher Scientific, cat. 17504044), 1X N-2 supplement (Thermo Fisher Scientific, cat. 17502048), 50 ng/mL human EGF (Thermo Fisher Scientific, cat. PHG0311), and 10 microM Y-27632 dihydrochloride (Tocris Bioscience, cat. 1254). The K12877-001-R-J1-PDC line was cultured in 6I media, which includes all 6C/Colon 1B media plus 10 ng/mL human FGF-10 (PeproTech, cat. 100-26), 1 ng/mL human FGF-2 (PeproTech, cat. 100-18B), 1 µM prostaglandin E2 (Tocris Bioscience, cat. 2296), […] hydrocortisone (Sigma-Aldrich, cat. H4001), and […] bovine insulin (Sigma-Aldrich, cat. I6634). The K86415-001-R-J1-PDC line was cultured in 6D media, which includes all 6C/Colon 1B media components minus the L-WRN conditioned media. The 485176-168-R4-J1-PDC was cultured in PANC media, which includes all 6C/Colon 1B media plus 100 ng/mL human FGF-10 (PeproTech, cat. 100-26), 500 nM SB-431542 (Selleckchem, cat. S1067), and 10 nM gastrin (Tocris Bioscience, cat. 3006). […]
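Further: spheroids exposed to agents for seven days before readout.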
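Wherever viability, T/C is given: luminescence viability as percent of DMSO vehicle control wells.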

CC1(C)CCC(Nc2ncc(C(F)(F)F)c(-c3c[nH]c4c(P(C)(C)=O)c(C#N)ccc34)n2)CN1 (configuration not stated) + CCn1c(-c2cccnc2C(C)OC)c2c3cc(ccc31)N1CCOC(CC(NC(=O)C(C(C)C)N(C)C(=O)C3(F)CCN(C(=O)C#CC(C)(C)N(C)C)CC3)C(=O)N3CCCC(N3)C(=O)OCC(C)(C)C2)C1
IC50 (second compound 0.000949 µM): > 300 nM | IC50 (second compound 0.003 µM): > 300 nM | IC50 (second compound 0.00949 µM): > 300 nM | IC50 (second compound 0.03 µM): > 300 nM | IC50 (second compound 0.0949 µM): > 300 nM | IC50 (second compound 0.3 µM): > 300 nM | viability, T/C (second compound 0.000949 µM, first compound 0.000949 µM): 83.9% | viability, T/C (second compound 0.000949 µM, first compound 0.003 µM): 124% | viability, T/C (second compound 0.000949 µM, first compound 0.00949 µM): 115% | viability, T/C (second compound 0.000949 µM, first compound 0.03 µM): 90% | viability, T/C (second compound 0.000949 µM, first compound 0.0949 µM): 104% | viability, T/C (second compound 0.000949 µM, first compound 0.3 µM): 75.9% | viability, T/C (second compound 0.003 µM, first compound 0.000949 µM): 94.1% | viability, T/C (second compound 0.003 µM, first compound 0.003 µM): 112% | viability, T/C (second compound 0.003 µM, first compound 0.00949 µM): 140% | viability, T/C (second compound 0.003 µM, first compound 0.03 µM): 88.6% | viability, T/C (second compound 0.003 µM, first compound 0.0949 µM): 89.5% | viability, T/C (second compound 0.003 µM, first compound 0.3 µM): 89.3% | viability, T/C (second compound 0.00949 µM, first compound 0.000949 µM): 102% | viability, T/C (second compound 0.00949 µM, first compound 0.003 µM): 105% | viability, T/C (second compound 0.00949 µM, first compound 0.00949 µM): 134% | viability, T/C (second compound 0.00949 µM, first compound 0.03 µM): 97% | viability, T/C (second compound 0.00949 µM, first compound 0.0949 µM): 80.8% | viability, T/C (second compound 0.00949 µM, first compound 0.3 µM): 92.9% | viability, T/C (second compound 0.03 µM, first compound 0.000949 µM): 89.3% | viability, T/C (second compound 0.03 µM, first compound 0.003 µM): 118% | viability, T/C (second compound 0.03 µM, first compound 0.00949 µM): 98.2% | viability, T/C (second compound 0.03 µM, first compound 0.03 µM): 96.3% | viability, T/C (second compound 0.03 µM, first compound 0.0949 µM): 91.2% | viability, T/C (second compound 0.03 µM, first compound 0.3 µM): 96.9% | viability, T/C (second compound 0.0949 µM, first compound 0.000949 µM): 84.5% | viability, T/C (second compound 0.0949 µM, first compound 0.003 µM): 135% | viability, T/C (second compound 0.0949 µM, first compound 0.00949 µM): 131% | viability, T/C (second compound 0.0949 µM, first compound 0.03 µM): 77% | viability, T/C (second compound 0.0949 µM, first compound 0.0949 µM): 75.1% | viability, T/C (second compound 0.0949 µM, first compound 0.3 µM): 67.9% | viability, T/C (second compound 0.3 µM, first compound 0.000949 µM): 92.6% | viability, T/C (second compound 0.3 µM, first compound 0.003 µM): 107% | viability, T/C (second compound 0.3 µM, first compound 0.00949 µM): 110% | viability, T/C (second compound 0.3 µM, first compound 0.03 µM): 84.5% | viability, T/C (second compound 0.3 µM, first compound 0.0949 µM): 56.9% | viability, T/C (second compound 0.3 µM, first compound 0.3 µM): 53.6%
